Assay results: article doi:10.1101/2020.09.01.277368v1, “Disulfiram inhibits M. tuberculosis growth by altering methionine pool, redox status and host-immune response” (biorxiv, 2020)

target: T1, MetA (HSAT, homoserine acetyl transferase, Rv3341) (Mycobacterium tuberculosis, UniProt P9WJY9); assay: endpoint DTNB CoA release assay; assay type: biochemical
T1 construct: gene metXA
T1 sequence (P9WJY9 whole entry, looked up): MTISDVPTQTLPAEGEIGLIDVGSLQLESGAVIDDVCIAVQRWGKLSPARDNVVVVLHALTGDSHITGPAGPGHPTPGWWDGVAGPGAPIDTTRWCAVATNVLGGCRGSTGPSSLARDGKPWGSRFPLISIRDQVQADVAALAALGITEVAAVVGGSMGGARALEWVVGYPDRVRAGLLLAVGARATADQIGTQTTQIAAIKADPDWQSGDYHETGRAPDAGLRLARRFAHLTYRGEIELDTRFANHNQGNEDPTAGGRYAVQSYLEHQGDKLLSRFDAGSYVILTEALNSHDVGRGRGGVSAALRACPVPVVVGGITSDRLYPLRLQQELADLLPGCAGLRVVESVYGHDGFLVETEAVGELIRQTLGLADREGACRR

Structure (SMILES)	% inhibition at 100 μM [%]
Oc1cc(CNC2CCCCC2)c(O)cc1CNC1CCCCC1 [NSC48443]	> 50
COc1cc(-c2ccc(Nc3ccccc3C(=O)O)c(OC)c2)ccc1Nc1ccccc1C(=O)O [NSC73735]	> 50
CCOC(=O)/C(C#N)=C1\SS/C(=C(/C#N)C(=O)OCC)S1 [NSC98363]	> 50
O=Nc1c(-c2cccc([N+](=O)[O-])c2)nc2ncccn12 [NSC369066]	> 50
Cc1ccc(S(=O)(=O)SC/C=C/CSS(=O)(=O)c2ccc(C)cc2)cc1 [NSC624158]	> 50
C/C(=N\NC(=S)N(C)C)c1ccccn1.[Cu][Br] [NSC635448]	> 50
Oc1cc(-n2cccn2)c(O)cc1-n1cccn1 [NSC645987]	> 50
